Data taken from the C3SDB collision cross section collection.

Experiments:
[1] = instrument: TW, calibrated with polyalanine
[2] = instrument: DT, stepped-field
[3] = instrument: DT, stepped-field; remark: listed apart in the source
[4] = instrument: DT, single field, calibrated with Agilent tune mix (Agilent)
[5] = instrument: TW, calibrated with polyalanine; remark: listed apart in the source

With `O=C(O)C(CO)OP(=O)(O)O` (centres undefined) [2-Phosphoglyceric acid] the “collision cross section (N2)” value ([1]; [M+Na]+) was 132 Å².

For `O=C1CC[C@@H](C(=O)O)N1` [5-Oxoproline], the “collision cross section (N2)” value ([1]; [M+H]+) was 121 Å².

In the case of `CN(C)C(N)=NCCC[C@H](N)C(=O)O` [ADMA], the “collision cross section (N2)” value ([1]; [M+H]+) is reported as 141 Å².

For `CC(=O)N[C@@H]1[C@@H](O)[C@H](O)[C@@H](CO)O[C@H]1O` [Acetylglucosamine], the “collision cross section (N2)” value ([1]; [M+Na]+) was 153 Å².

For `CC[C@H](C)[C@H](NC(=O)[C@H](Cc1ccc(O)cc1)NC(=O)[C@@H](NC(=O)[C@H](CCCN=C(N)N)NC(=O)[C@@H](N)CC(=O)O)C(C)C)C(=O)N[C@@H](Cc1cnc[nH]1)C(=O)N1CCC[C@H]1C(=O)N[C@@H](Cc1ccccc1)C(=O)O` [Angiotensin II], the “collision cross section (N2)” value ([2]; [M+2H]2+) was 353.79 Å², the “collision cross section (N2)” value ([2]; [M+3H]3+) was 436.24 Å² and the “collision cross section (N2)” value ([2]; [M+H]+) was 314.38 Å².

With `NC(N)=NCCC[C@H](N)C(=O)O` [Arginine] the “collision cross section (N2)” value ([1]; [M+H]+) was 133 Å².

For `C[N+](C)(C)CCO` [Choline], the “collision cross section (N2)” value ([1]; [M]+) was 117 Å², the “collision cross section (N2)” value ([3]; [M]+) was 119 Å² and the “collision cross section (N2)” value ([4]; [M+H]+) was 117.8 Å².

For `O=C(O)CC(O)(CC(=O)O)C(=O)O` [Citric acid], the “collision cross section (N2)” value ([1]; [M+Na]+) was 138 Å².

For `NC(=O)NCCC[C@H](N)C(=O)O` [Citrulline], the “collision cross section (N2)” value ([1]; [M+H]+) was 132 Å².

In the case of `CCCCC/C=C\C/C=C\C/C=C\CCCCCCC(=O)O` [Dihomo-gamma-Linolenic Acid], the “collision cross section (N2)” value ([2]; [M-H]-) is reported as 183.02 Å².

In the case of `CC(C)[C@H]1C(=O)O[C@H](C(C)C)C(=O)N(C)[C@@H](C(C)C)C(=O)O[C@H](C(C)C)C(=O)N(C)[C@@H](C(C)C)C(=O)O[C@H](C(C)C)C(=O)N1C` [Enniatin B], the “collision cross section (N2)” value ([5]; [M+H]+) is reported as 244.1 Å², the “collision cross section (N2)” value ([5]; [M+K]+) is reported as 251.1 Å² and the “collision cross section (N2)” value ([5]; [M+NH4]+) is reported as 248 Å². For the same compound, the “collision cross section (N2)” value ([5]; [M+Na]+) was 248.9 Å².

For `OCC1(O)OC[C@@H](O)[C@@H](O)[C@@H]1O` (some centres undefined) [Fructose], the “collision cross section (N2)” value ([1]; [M+Na]+) was 135 Å².

In the case of `CCCC[C@@H](C)[C@@H](OC(=O)C[C@@H](CC(=O)O)C(=O)O)[C@H](C[C@@H](C)CCCCCC[C@@H](O)C[C@H](O)[C@H](C)N)OC(=O)C[C@@H](CC(=O)O)C(=O)O` [Fumonisin B2], the “collision cross section (N2)” value ([5]; [M+H]+) is reported as 258 Å², the “collision cross section (N2)” value ([5]; [M+K]+) is reported as 264.5 Å² and the “collision cross section (N2)” value ([5]; [M+Na]+) is reported as 259.2 Å².

With `Nc1nc(=O)c2ncn([C@@H]3O[C@H](COP(=O)(O)O)[C@@H](O)[C@H]3O)c2[nH]1` [GMP] the “collision cross section (N2)” value ([1]; [M+H]+) was 176 Å².

In the case of `OC[C@H]1OC(O)[C@H](O)[C@@H](O)[C@H]1O` (some centres undefined) [Galactose], the “collision cross section (N2)” value ([1]; [M+Na]+) is reported as 136 Å².

For `N[C@@H]1[C@@H](O)[C@H](O)[C@@H](COP(=O)(O)O)O[C@@H]1O` [Glucosamine 6-phosphate], the “collision cross section (N2)” value ([1]; [M+H]+) was 150 Å².

For `OC[C@H]1OC(O)[C@H](O)[C@@H](O)[C@@H]1O` (some centres undefined) [Glucose], the “collision cross section (N2)” value ([1]; [M+Na]+) was 138 Å².

In the case of `O=C(O)[C@H]1OC(O)[C@H](O)[C@@H](O)[C@@H]1O` (some centres undefined) [Glucuronic acid], the “collision cross section (N2)” value ([1]; [M+Na]+) is reported as 140 Å².

With `Nc1nc(=O)c2[nH]cnc2[nH]1` [Guanine] the “collision cross section (N2)” value ([1]; [M+H]+) was 124 Å² and the “collision cross section (N2)” value ([3]; [M+H]+) was 133.55 Å².

In the case of `CCCC[C@@H](C)[C@@H](O)[C@@H](O)C[C@@H](C)C[C@H](O)CCCC[C@@H](O)C[C@H](O)[C@H](C)N` [HFB1], the “collision cross section (N2)” value ([5]; [M+K]+) is reported as 214 Å² and the “collision cross section (N2)” value ([5]; [M+Na]+) is reported as 209.7 Å².

In the case of `CC(=O)OC[C@]12C[C@H](OC(=O)CC(C)C)C(C)=C[C@H]1O[C@@H]1[C@H](O)[C@@H](O)[C@@]2(C)[C@]12CO2` [HT-2 toxin], the “collision cross section (N2)” value ([5]; [M+NH4]+) is reported as 203 Å².

With `CC[C@H](C)[C@H](N)C(=O)O` [Isoleucine] the “collision cross section (N2)” value ([1]; [M+H]+) was 129 Å².

With `NC(N)=NCCC[C@H](N)C(=O)O` [L-Arginine] the “collision cross section (N2)” value ([2]; [M+H]+) was 136.84 Å², the “collision cross section (N2)” value ([2]; [M-H]-) was 138.03 Å² and the “collision cross section (N2)” value ([3]; [M+Na]+) was 147.8 Å². The “collision cross section (N2)” value ([4]; [M+H]+) was 136.4 Å².

In the case of `CC[C@H](C)[C@H](N)C(=O)O` [L-Isoleucine], the “collision cross section (N2)” value ([2]; [M+H]+) is reported as 133.81 Å², the “collision cross section (N2)” value ([2]; [M-H]-) is reported as 131.29 Å² and the “collision cross section (N2)” value ([3]; [M+H]+) is reported as 136.97 Å².

For `CSCC[C@H](N)C(=O)O` [L-Methionine], the “collision cross section (N2)” value ([2]; [M+H]+) was 134.08 Å² and the “collision cross section (N2)” value ([3]; [M+H]+) was 133.65 Å².

With `N[C@@H](Cc1ccccc1)C(=O)O` [L-Phenylalanine] the “collision cross section (N2)” value ([2]; [M+H]+) was 141.28 Å², the “collision cross section (N2)” value ([2]; [M-H]-) was 141.29 Å² and the “collision cross section (N2)” value ([3]; [M+Na]+) was 138.91 Å². For the same compound, the “collision cross section (N2)” value ([4]; [M+H]+) was 140.3 Å².

In the case of `N[C@@H](Cc1ccc(O)cc1)C(=O)O` [L-Tyrosine], the “collision cross section (N2)” value ([2]; [M+H]+) is reported as 146.45 Å², the “collision cross section (N2)” value ([2]; [M-H]-) is reported as 145.59 Å² and the “collision cross section (N2)” value ([3]; [M+Na]+) is reported as 143.97 Å². For the same compound, the “collision cross section (N2)” value ([4]; [M+H]+) was 145.7 Å².

For `CCCCCCCCCCCCCCCCC(=O)O` [Margaric acid], the “collision cross section (N2)” value ([2]; [M-H]-) was 173.41 Å².

With `CSCC[C@H](N)C(=O)O` [Methionine] the “collision cross section (N2)” value ([1]; [M+H]+) was 127 Å².

For `O=C(O)c1cccnc1` [Nicotinic acid], the “collision cross section (N2)” value ([1]; [M+H]+) was 115 Å².

In the case of `CC1=C[C@H]2O[C@@H]3[C@H](O)[C@@H](O)[C@](C)([C@@]2(CO)[C@H](O)C1=O)[C@]31CO1` [Nivalenol], the “collision cross section (N2)” value ([5]; [M+H3C2O2]-) is reported as 180 Å².

In the case of `CCCCCCCC/C=C\CCCCCCCC(=O)O` [Oleic acid], the “collision cross section (N2)” value ([2]; [M-H]-) is reported as 176.46 Å² and the “collision cross section (N2)” value ([4]; [M-H]-) is reported as 173.88 Å².

With `CC(C)(O)[C@H]1O[C@H]2CC[C@@]3(C)[C@@](O)(CC[C@H]4Cc5c([nH]c6ccccc56)[C@@]43C)C2=CC1=O` [Paxilline] the “collision cross section (N2)” value ([5]; [M+H]+) was 201 Å².

In the case of `CCCCCCCCCCCCCCC(=O)O` [Pentadecanoic acid], the “collision cross section (N2)” value ([2]; [M-H]-) is reported as 165.34 Å².

For `N[C@@H](Cc1ccccc1)C(=O)O` [Phenylalanine], the “collision cross section (N2)” value ([1]; [M+H]+) was 135 Å².

With `Cc1ncc(CO)c(CN)c1O` [Pyridoxamine] the “collision cross section (N2)” value ([1]; [M+H]+) was 130 Å², the “collision cross section (N2)” value ([3]; [M+H]+) was 135.79 Å² and the “collision cross section (N2)” value ([3]; [M+Na]+) was 148.49 Å². The “collision cross section (N2)” value ([4]; [M+H]+) was 134 Å².

With `C=CC(C)(C)C12CC3C(=O)N/C(=C/c4cnc[nH]4)C(=O)N3C1Nc1ccccc12` (centres undefined) [Roquefortine C] the “collision cross section (N2)” value ([5]; [M+H]+) was 179 Å².

With `Nc1ncnc2c1ncn2[C@@H]1O[C@H](CSCC[C@H](N)C(=O)O)[C@@H](O)[C@H]1O` [SAH] the “collision cross section (N2)” value ([1]; [M+H]+) was 179 Å².

In the case of `C[S+](CC[C@H](N)C(=O)[O-])C[C@H]1O[C@@H](n2cnc3c(N)ncnc32)[C@H](O)[C@@H]1O` (some centres undefined) [SAMe], the “collision cross section (N2)” value ([1]; [M]+) is reported as 184 Å².

With `CCCCCCCCCCCCCCCCCC(=O)O` [Stearic acid] the “collision cross section (N2)” value ([2]; [M-H]-) was 177.66 Å² and the “collision cross section (N2)” value ([4]; [M-H]-) was 174.42 Å².

For `COc1cc2c(c3oc4cccc(O)c4c(=O)c13)[C@@H]1C=CO[C@@H]1O2` [Sterigmatocystin], the “collision cross section (N2)” value ([5]; [M+H]+) was 163 Å².

With `N[C@@H](Cc1ccc(O)cc1)C(=O)O` [Tyrosine] the “collision cross section (N2)” value ([1]; [M+H]+) was 139 Å².

With `O=c1ccn([C@@H]2O[C@H](COP(=O)(O)OP(=O)(O)O)[C@@H](O)[C@H]2O)c(=O)[nH]1` [UDP] the “collision cross section (N2)” value ([1]; [M+H]+) was 174 Å².

For `O=c1cc[nH]c(=O)[nH]1` [Uracil], the “collision cross section (N2)” value ([1]; [M+H]+) was 115 Å², the “collision cross section (N2)” value ([3]; [M+H]+) was 126.98 Å² and the “collision cross section (N2)” value ([4]; [M+H]+) was 118.5 Å².

In the case of `OC[C@H]1OC(O)[C@H](O)[C@@H](O)[C@@H]1O` (stereo partly drawn) [a-D-Glucose], the “collision cross section (N2)” value ([2]; [M+Na]+) is reported as 147.35 Å².

For `C[C@H]1CCC[C@@H](O)CCC/C=C/c2cc(O)cc(O)c2C(=O)O1` [beta-zearalenol], the “collision cross section (N2)” value ([5]; [M-H]-) was 173 Å².

For `CCCCC/C=C\C/C=C\CCCCCCCCCC(=O)O` [cis-11,14-Eicosadienoic acid], the “collision cross section (N2)” value ([2]; [M-H]-) was 183.32 Å².

With `CCCCCCCC/C=C\CCCCCCCCCC(=O)O` [cis-Gondoic acid] the “collision cross section (N2)” value ([2]; [M-H]-) was 184.29 Å².

In the case of `Cc1cn([C@H]2C[C@H](O)[C@@H](COP(=O)(O)O)O2)c(=O)[nH]c1=O` [dTMP], the “collision cross section (N2)” value ([1]; [M+Na]+) is reported as 170 Å².
